Experimental data from article PMC8213057, “Targeting ALK2: An Open Science Approach to Developing Therapeutics for the Treatment of Diffuse Intrinsic Pontine Glioma” (Journal of Medicinal Chemistry, 2020).

How the values were obtained:
[1] = molecular target: PDGFRa (Homo sapiens, UniProt P16234); conditions: 1 μM; Run 1, Run 2
[2] = molecular target: T1, DYRK4 (Homo sapiens, UniProt Q9NR20); assay: biochemical; conditions: read-out: % enzyme activity, 1 μM; Run 1, Run 2
T1 sequence (Q9NR20 1-520): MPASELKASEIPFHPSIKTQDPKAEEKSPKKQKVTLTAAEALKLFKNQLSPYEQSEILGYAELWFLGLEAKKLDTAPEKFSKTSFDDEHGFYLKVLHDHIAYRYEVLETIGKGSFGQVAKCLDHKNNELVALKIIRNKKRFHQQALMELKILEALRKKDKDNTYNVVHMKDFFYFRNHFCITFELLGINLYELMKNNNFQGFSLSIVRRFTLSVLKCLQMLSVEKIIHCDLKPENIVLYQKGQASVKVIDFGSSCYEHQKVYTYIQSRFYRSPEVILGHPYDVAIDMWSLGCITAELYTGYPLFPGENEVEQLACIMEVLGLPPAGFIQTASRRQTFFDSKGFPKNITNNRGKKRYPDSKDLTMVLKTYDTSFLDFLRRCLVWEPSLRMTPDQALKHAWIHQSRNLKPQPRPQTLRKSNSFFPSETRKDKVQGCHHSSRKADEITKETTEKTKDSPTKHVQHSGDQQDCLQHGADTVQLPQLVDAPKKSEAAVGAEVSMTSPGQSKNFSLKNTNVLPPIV

[3] = molecular target: MSK2/RPS6KA4 (Homo sapiens, UniProt O75676); assay: biochemical; conditions: read-out: % enzyme activity, 1 μM; Run 1, Run 2
Chain of MSK2/RPS6KA4 (O75676 whole entry): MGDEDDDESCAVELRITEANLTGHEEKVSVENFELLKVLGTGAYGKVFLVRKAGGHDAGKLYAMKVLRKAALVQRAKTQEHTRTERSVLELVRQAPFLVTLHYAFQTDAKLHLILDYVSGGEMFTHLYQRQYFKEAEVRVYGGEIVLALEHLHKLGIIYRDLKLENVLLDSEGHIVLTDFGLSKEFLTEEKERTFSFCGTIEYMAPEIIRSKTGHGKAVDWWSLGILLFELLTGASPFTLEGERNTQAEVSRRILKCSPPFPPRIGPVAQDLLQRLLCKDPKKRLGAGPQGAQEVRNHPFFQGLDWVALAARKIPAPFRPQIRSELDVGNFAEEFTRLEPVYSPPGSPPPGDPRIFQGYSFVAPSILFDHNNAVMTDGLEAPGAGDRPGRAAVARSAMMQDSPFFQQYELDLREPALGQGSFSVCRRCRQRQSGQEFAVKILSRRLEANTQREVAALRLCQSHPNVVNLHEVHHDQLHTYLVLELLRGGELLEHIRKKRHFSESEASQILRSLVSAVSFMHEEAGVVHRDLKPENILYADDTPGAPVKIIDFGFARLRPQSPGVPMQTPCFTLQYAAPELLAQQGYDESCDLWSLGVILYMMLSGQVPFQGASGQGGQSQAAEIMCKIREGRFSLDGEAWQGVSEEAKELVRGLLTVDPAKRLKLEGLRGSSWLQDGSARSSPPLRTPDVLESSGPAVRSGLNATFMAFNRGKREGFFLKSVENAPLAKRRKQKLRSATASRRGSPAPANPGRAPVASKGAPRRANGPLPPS

[4] = molecular target: T2, STK39/STLK3 (Homo sapiens, UniProt Q9UEW8); assay: biochemical; conditions: read-out: % enzyme activity, 1 μM; Run 1, Run 2
[5] = molecular target: T2, STK39/STLK3; conditions: 1 μM; Run 1, Run 2
[6] = molecular target: T3, P38g (Homo sapiens, UniProt P53778); assay: biochemical; conditions: read-out: % enzyme activity, 1 μM; Run 1, Run 2
T3 sequence (P53778 1-367): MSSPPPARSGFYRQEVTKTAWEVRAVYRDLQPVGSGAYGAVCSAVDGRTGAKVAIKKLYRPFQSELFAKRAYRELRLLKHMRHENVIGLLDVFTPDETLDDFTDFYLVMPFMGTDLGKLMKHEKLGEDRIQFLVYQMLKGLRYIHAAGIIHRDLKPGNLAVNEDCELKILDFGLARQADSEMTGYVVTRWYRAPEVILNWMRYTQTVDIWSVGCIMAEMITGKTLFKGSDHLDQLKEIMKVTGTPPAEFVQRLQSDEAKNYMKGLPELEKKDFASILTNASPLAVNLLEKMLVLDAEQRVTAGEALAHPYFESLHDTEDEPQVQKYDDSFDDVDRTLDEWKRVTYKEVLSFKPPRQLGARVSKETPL

[7] = molecular target: T4, TBK1 (Homo sapiens, UniProt Q9UHD2); assay: biochemical; conditions: read-out: % enzyme activity, 1 μM; Run 1, Run 2
T4 sequence (Q9UHD2 1-729): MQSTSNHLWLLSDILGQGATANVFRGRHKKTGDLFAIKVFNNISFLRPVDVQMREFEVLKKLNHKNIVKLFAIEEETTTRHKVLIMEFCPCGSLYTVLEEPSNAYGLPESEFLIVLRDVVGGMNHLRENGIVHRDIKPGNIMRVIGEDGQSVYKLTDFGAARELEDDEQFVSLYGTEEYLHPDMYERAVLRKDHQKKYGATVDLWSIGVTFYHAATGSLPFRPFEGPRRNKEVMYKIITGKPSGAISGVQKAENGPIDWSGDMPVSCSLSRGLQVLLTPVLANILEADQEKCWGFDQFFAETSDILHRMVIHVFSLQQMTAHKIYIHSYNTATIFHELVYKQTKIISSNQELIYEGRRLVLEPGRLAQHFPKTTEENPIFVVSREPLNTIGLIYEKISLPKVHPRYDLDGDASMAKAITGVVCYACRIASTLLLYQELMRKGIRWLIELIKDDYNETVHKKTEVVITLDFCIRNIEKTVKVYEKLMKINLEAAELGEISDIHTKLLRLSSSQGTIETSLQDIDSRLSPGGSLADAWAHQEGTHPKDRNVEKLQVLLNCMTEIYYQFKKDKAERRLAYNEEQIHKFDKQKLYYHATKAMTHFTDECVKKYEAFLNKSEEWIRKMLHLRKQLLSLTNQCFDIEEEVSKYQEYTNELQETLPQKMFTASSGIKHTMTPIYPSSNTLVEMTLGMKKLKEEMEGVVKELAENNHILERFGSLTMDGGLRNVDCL

[8] = molecular target: SIK3 (Homo sapiens, UniProt Q9Y2K2); assay: biochemical; conditions: read-out: % enzyme activity, 1 μM; Run 1, Run 2
[9] = molecular target: CDK9/cyclin T1 (Homo sapiens, UniProt P50750); conditions: 1 μM; Run 1, Run 2
Chain of CDK9/cyclin T1 (P50750 whole entry): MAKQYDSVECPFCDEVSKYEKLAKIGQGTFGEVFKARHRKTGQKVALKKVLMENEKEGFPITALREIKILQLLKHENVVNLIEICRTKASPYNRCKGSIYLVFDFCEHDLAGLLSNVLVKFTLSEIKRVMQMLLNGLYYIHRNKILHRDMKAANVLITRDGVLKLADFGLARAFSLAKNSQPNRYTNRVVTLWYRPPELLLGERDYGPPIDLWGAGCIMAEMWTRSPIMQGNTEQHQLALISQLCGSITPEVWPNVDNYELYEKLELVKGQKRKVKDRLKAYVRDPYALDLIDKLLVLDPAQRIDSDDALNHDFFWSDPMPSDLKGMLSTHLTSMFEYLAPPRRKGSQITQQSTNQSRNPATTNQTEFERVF
Chain of CDK9/cyclin T1 (O60563 whole entry partner): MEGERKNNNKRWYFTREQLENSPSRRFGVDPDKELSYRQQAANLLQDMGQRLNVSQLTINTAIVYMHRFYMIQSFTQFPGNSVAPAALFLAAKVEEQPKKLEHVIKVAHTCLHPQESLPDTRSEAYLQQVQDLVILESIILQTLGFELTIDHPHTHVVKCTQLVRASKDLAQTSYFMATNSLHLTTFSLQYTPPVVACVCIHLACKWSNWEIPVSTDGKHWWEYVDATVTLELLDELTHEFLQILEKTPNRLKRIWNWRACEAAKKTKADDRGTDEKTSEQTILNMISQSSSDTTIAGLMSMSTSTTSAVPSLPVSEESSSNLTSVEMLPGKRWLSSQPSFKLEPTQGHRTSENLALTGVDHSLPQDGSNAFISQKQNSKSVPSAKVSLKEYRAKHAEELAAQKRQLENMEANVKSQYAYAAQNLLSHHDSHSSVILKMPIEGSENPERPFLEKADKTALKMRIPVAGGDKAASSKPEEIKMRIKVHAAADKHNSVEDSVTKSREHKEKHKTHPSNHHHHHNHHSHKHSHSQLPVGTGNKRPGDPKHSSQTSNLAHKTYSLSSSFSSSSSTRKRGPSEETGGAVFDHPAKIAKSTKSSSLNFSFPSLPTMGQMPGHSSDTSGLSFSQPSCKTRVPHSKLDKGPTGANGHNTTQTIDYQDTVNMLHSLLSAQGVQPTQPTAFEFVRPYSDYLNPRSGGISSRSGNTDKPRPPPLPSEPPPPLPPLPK

[10] = molecular target: CAMK4 (Homo sapiens, UniProt Q16566); assay: biochemical; conditions: read-out: % enzyme activity, 1 μM; Run 1, Run 2
Chain of CAMK4 (Q16566 whole entry): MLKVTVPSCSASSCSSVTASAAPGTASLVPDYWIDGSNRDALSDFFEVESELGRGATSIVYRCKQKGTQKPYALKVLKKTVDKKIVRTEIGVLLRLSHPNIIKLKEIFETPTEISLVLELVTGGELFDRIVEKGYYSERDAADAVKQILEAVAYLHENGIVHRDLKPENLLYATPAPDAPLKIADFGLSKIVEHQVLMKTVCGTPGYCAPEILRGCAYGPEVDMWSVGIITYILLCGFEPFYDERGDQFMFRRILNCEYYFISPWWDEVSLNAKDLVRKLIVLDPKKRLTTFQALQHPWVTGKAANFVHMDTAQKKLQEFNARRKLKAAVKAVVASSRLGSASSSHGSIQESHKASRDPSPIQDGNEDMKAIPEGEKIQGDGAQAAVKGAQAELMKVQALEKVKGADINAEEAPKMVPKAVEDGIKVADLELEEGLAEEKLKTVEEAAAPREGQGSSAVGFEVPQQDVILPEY

[11] = molecular target: STK38/NDR1 (Homo sapiens, UniProt Q15208); assay: biochemical; conditions: read-out: % enzyme activity, 1 μM; Run 1, Run 2
Chain of STK38/NDR1 (Q15208 whole entry): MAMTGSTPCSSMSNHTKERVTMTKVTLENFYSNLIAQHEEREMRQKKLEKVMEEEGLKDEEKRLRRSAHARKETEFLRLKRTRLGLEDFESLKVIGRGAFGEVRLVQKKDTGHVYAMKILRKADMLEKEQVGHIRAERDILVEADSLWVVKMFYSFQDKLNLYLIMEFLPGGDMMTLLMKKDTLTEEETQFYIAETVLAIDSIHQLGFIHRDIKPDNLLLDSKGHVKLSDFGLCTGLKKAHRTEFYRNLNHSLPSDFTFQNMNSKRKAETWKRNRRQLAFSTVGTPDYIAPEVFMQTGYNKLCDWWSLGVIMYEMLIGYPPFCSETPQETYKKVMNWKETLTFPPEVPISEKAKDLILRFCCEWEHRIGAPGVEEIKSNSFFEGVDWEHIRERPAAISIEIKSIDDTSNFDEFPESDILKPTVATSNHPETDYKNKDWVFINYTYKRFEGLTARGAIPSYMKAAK

[12] = molecular target: CDK1/cyclin E (Homo sapiens, UniProt P06493); conditions: 1 μM; Run 1, Run 2
Chain of CDK1/cyclin E (P24864 whole entry): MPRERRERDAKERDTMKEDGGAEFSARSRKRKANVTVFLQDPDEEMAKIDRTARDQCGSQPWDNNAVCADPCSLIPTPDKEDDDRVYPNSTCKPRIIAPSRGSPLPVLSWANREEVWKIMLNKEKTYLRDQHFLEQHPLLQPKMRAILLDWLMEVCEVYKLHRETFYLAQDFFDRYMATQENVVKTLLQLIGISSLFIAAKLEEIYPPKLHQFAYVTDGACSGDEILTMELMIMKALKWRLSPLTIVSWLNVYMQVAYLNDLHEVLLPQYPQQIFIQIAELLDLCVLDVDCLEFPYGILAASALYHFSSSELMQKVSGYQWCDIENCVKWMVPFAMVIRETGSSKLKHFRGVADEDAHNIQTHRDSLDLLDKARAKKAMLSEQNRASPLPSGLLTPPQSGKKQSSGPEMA
Chain of CDK1/cyclin E (P06493 whole entry): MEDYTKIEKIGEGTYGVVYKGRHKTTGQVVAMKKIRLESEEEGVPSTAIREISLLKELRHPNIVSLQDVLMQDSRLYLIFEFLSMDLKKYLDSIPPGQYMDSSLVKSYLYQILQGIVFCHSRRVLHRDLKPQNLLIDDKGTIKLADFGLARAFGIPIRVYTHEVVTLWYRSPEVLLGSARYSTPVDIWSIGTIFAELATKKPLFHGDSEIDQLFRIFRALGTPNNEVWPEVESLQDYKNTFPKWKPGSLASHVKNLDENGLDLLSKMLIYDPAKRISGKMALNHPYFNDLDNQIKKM

[13] = molecular target: MAPKAPK2 (Homo sapiens, UniProt P49137); assay: biochemical; conditions: read-out: % enzyme activity, 1 μM; Run 1, Run 2
Chain of MAPKAPK2 (P49137 whole entry): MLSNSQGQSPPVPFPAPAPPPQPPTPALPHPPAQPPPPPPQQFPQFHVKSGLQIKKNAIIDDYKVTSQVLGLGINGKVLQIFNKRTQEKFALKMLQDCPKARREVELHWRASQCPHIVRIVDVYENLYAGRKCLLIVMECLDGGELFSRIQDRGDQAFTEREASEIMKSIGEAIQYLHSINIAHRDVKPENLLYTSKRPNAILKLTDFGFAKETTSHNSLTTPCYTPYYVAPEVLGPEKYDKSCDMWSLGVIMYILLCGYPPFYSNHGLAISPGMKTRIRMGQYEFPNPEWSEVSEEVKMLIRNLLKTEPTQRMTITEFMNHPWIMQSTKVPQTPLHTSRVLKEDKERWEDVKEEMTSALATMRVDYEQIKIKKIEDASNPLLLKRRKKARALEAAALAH

[14] = molecular target: T5, Aurora A (Homo sapiens, UniProt O14965); assay: biochemical; conditions: read-out: % enzyme activity, 1 μM; Run 1, Run 2
T5 sequence (O14965 1-403): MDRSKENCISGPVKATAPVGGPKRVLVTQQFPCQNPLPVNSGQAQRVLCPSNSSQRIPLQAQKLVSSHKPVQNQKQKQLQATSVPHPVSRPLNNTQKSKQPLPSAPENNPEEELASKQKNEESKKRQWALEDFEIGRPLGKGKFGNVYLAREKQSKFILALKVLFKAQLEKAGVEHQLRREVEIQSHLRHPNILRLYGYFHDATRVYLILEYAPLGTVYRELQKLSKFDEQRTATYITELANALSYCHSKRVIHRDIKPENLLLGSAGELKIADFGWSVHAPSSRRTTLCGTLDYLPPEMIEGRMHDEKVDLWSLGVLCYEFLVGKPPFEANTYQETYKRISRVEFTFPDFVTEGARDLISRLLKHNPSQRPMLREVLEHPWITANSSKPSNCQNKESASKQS

[15] = molecular target: MEKK1 (Homo sapiens, UniProt Q13233); conditions: 1 μM; Run 1, Run 2
[16] = molecular target: ROCK1 (Homo sapiens, UniProt Q13464); assay: biochemical; conditions: read-out: % enzyme activity, 1 μM; Run 1, Run 2

Chain of PDGFRa (P16234 24-1089): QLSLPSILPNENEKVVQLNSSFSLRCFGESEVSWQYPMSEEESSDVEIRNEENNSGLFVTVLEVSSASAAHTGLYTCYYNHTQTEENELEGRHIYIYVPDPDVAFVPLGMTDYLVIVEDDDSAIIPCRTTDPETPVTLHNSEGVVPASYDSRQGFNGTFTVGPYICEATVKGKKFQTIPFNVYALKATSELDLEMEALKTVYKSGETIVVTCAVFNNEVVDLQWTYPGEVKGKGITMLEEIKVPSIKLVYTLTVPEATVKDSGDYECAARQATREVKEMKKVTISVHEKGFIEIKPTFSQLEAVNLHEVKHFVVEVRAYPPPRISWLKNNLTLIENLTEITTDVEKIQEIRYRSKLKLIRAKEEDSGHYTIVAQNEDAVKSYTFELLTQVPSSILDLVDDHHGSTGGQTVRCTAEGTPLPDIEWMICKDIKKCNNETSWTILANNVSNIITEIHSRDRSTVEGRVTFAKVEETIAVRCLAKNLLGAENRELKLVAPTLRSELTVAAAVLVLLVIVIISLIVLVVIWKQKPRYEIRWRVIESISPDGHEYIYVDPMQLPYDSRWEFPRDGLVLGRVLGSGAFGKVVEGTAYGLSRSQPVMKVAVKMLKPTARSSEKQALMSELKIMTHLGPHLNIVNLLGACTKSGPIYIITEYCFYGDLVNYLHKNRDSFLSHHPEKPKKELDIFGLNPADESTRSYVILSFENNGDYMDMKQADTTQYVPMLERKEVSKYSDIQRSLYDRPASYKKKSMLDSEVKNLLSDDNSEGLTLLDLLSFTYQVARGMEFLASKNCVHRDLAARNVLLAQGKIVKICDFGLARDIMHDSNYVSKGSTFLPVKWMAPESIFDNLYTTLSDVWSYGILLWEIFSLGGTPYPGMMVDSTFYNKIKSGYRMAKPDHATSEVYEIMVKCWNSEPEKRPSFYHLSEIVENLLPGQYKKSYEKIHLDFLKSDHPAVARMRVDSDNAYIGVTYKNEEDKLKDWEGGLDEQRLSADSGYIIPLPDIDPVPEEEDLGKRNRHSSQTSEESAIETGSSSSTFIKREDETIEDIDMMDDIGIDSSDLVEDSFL

| SMILES | % enzyme activity [1] [%] | remaining activity at 1 µM [2] [%] | remaining activity at 1 µM [3] [%] | remaining activity at 1 µM [4] [%] | % enzyme activity [5] [%] | remaining activity at 1 µM [6] [%] | remaining activity at 1 µM [7] [%] | remaining activity at 1 µM [8] [%] | % enzyme activity [9] [%] | remaining activity at 1 µM [10] [%] | remaining activity at 1 µM [11] [%] | % enzyme activity [12] [%] | remaining activity at 1 µM [13] [%] | remaining activity at 1 µM [14] [%] | % enzyme activity [15] [%] | remaining activity at 1 µM [16] [%] |
| --- | --- | --- | --- | --- | --- | --- | --- | --- | --- | --- | --- | --- | --- | --- | --- | --- |
| COc1cc(-c2cncc(-c3ccc(N4CCN(C)CC4)cc3)c2C)cc(F)c1C(N)=O [Compound 26a, 2-Fluoro-6-methoxy-4-(4-methyl-5-(4-(4-methylpiperazin-1-yl)phenyl)pyridin-3-yl)benzamide] | 81.22 | 103 | 97.1 | 89.1 | 88.76 | 110 | 93.6 | 59.5 | 90.82 | 100 | 91.9 | 97.19 | 103 | 101 | 92.92 | 95 |
| COc1cc(-c2cncc(-c3ccc(N4C[C@@H](C)N(C)[C@@H](C)C4)cc3)c2C)cc(F)c1C(N)=O [Compound 26c, 2-Fluoro-6-methoxy-4-(4-methyl-5-(4-((3R,5S)-3,4,5-trimethylpiperazin-1-yl)phenyl)pyridin-3-yl)benzamide] | 81.08 | 101 | 95.4 | 95.7 | 93.62 | 108 | 87.2 | 89 | 96.85 | 103 | 96.7 | 91.92 | 95.4 | 102 | 97.31 | 94.7 |
